# Experimental data: article PMC4607586 (Bioorganic & medicinal chemistry letters, 2015)
# Legend:
# HIV-1 protease = HIV-1 protease (Human immunodeficiency virus type 1 group M subtype B, UniProt P04585); assay: HIV-1 protease enzyme inhibition assay; format: biochemical; settings: for improvement of protease inhibitory activity over 5b: relative to N-methyl-N-propyl amide 5b
# HIV-1 LAI = assay: Antiviral assay using MT-2 cells exposed to HIV-1 LAI; format: cell-based
SMILES,enhanced potency over 5a (enzyme inhibition) (HIV-1 protease; relative to 5a) [fold],antiviral activity (in words) (HIV-1 LAI),improvement of protease inhibitory activity over 5b (HIV-1 protease)
CCCN(C)C(=O)c1cccc(C(=O)N[C@@H](Cc2ccccc2)[C@H](O)CN(CC(C)C)S(=O)(=O)c2ccc(OC)cc2)c1 [Inhibitor 5b],5,,
CCCN(CCC)C(=O)c1cccc(C(=O)N[C@@H](Cc2ccccc2)[C@H](O)CN(CC(C)C)S(=O)(=O)c2ccc(OC)cc2)c1 [Inhibitor 5e],,no appreciable antiviral activity,
COc1ccc(S(=O)(=O)N(CC(C)C)C[C@@H](O)[C@H](Cc2ccccc2)NC(=O)c2cccc(C(=O)N3CCOCC3)c2)cc1 [Inhibitor 5f],,very good antiviral activity,over 10 fold
COc1ccc(S(=O)(=O)N(CC(C)C)C[C@@H](O)[C@H](Cc2ccccc2)NC(=O)c2cccc(C(=O)N3CCN(C)CC3)c2)cc1 [Inhibitor 5g],,very good antiviral activity,over 10 fold
COC[C@@H]1C[C@@H](O)CN1C(=O)c1cccc(C(=O)N[C@@H](Cc2ccccc2)[C@H](O)CN(CC(C)C)S(=O)(=O)c2ccc(OC)cc2)c1 [Inhibitor 5h],,moderate antiviral activity,
COC[C@H]1C[C@H](O)CN1C(=O)c1cccc(C(=O)N[C@@H](Cc2ccccc2)[C@H](O)CN(CC(C)C)S(=O)(=O)c2ccc(OC)cc2)c1 [Inhibitor 5i],,moderate antiviral activity,
COC[C@H]1C[C@@H](O)CN1C(=O)c1cccc(C(=O)N[C@@H](Cc2ccccc2)[C@H](O)CN(CC(C)C)S(=O)(=O)c2ccc(OC)cc2)c1 [Inhibitor 5k],,moderate antiviral activity,
